# Marks after values point to notes of the source that are not given here.
# Columns and labels:
# advanced solid tumors = assay: Clinical efficacy: tumor response per RECIST 1.1; assay type: in vivo, human
# Experimental: The endpoints for efficacy, including the objective response rate (ORR), disease control rate (DCR), progression-free survival (PFS), and time to progression (TTP), were assessed per RECIST 1.1. Tumor response was evaluated every two treatment cycles until disease progression, start of a new antitumor treatment, consent withdrawal, loss to follow-up, or study termination for other reasons.
# [1] = set-up: method as in doi:10.1158/1538-7445.AM2019-3072; conditions: preclinical; cited from earlier work
# [2] = 5 mg BID 14d-on/14d-off (N = 4)
# [3] = 10 mg BID 14d-on/14d-off (N = 3)
# [4] = 20 mg BID 14d-on/14d-off (N = 4)
# [5] = 30 mg BID 14d-on/14d-off (N = 7)
# [6] = 40 mg BID 14d-on/14d-off (N = 4)
# [7] = 50 mg BID 14d-on/14d-off (N = 4)
# [8] = 65 mg BID 14d-on/14d-off (N = 6)
# [9] = 85 mg BID 14d-on/14d-off (N = 12)
smiles,measurement,setting,value
Cc1cccc(-c2nn3c(c2-c2ccc4ncnn4c2/C=C/C(N)=O)CCC3)n1 [GFH018],BOR: CR,advanced solid tumors; [2],0 n (%)
same,BOR: NA (no postbaseline assessments after the start date),advanced solid tumors; [2],2 (50.0%) n (%)
same,BOR: NE (not estimable),advanced solid tumors; [2],0 n (%)
same,BOR: Non-CR/Non-PD,advanced solid tumors; [2],0 n (%)
same,BOR: PD,advanced solid tumors; [2],2 (50.0%) n (%)
same,BOR: PR,advanced solid tumors; [2],0 n (%)
same,BOR: SD,advanced solid tumors; [2],0 n (%)
same,DCR (90%CI),advanced solid tumors; [2],0 n (%)
same,ORR (90%CI),advanced solid tumors; [2],0 n (%)
same,BOR: CR,advanced solid tumors; [3],0 n (%)
same,BOR: NA (no postbaseline assessments after the start date),advanced solid tumors; [3],0 n (%)
same,BOR: NE (not estimable),advanced solid tumors; [3],0 n (%)
same,BOR: Non-CR/Non-PD,advanced solid tumors; [3],0 n (%)
same,BOR: PD,advanced solid tumors; [3],2 (66.7%) n (%)
same,BOR: PR,advanced solid tumors; [3],0 n (%)
same,BOR: SD,advanced solid tumors; [3],1 (33.3%) n (%)
same,DCR (90%CI),advanced solid tumors; [3],"1 (33.3%) (0.84%, 90.57%) n (%)"
same,ORR (90%CI),advanced solid tumors; [3],0 n (%)
same,BOR: CR,advanced solid tumors; [4],0 n (%)
same,BOR: NA (no postbaseline assessments after the start date),advanced solid tumors; [4],1 (25.0%) n (%)
same,BOR: Non-CR/Non-PD,advanced solid tumors; [4],0 n (%)
same,BOR: PD,advanced solid tumors; [4],1 (25.0%) n (%)
same,BOR: PR,advanced solid tumors; [4],0 n (%)
same,BOR: SD,advanced solid tumors; [4],1 (25.0%) n (%)
same,DCR (90%CI),advanced solid tumors; [4],"1 (25.0%) (0.63%, 80.59%) n (%)"
same,ORR (90%CI),advanced solid tumors; [4],0 n (%)
same,BOR: NE (not estimable),"advanced solid tumors; 20 mg BID 14d-on/14d-off (N = 4), SD of insufficient duration",1 (25.0%)^e n (%)
same,BOR: CR,advanced solid tumors; [5],0 n (%)
same,BOR: NA (no postbaseline assessments after the start date),advanced solid tumors; [5],3 (42.9%) n (%)
same,BOR: NE (not estimable),advanced solid tumors; [5],0 n (%)
same,BOR: Non-CR/Non-PD,advanced solid tumors; [5],0 n (%)
same,BOR: PD,advanced solid tumors; [5],3 (42.9%) n (%)
same,BOR: PR,advanced solid tumors; [5],0 n (%)
same,BOR: SD,advanced solid tumors; [5],1 (14.3%) n (%)
same,DCR (90%CI),advanced solid tumors; [5],"1 (14.3%) (0.36%, 57.87%) n (%)"
same,ORR (90%CI),advanced solid tumors; [5],0 n (%)
same,BOR: CR,advanced solid tumors; [6],0 n (%)
same,BOR: NA (no postbaseline assessments after the start date),advanced solid tumors; [6],1 (25.0%) n (%)
same,BOR: NE (not estimable),advanced solid tumors; [6],0 n (%)
same,BOR: Non-CR/Non-PD,advanced solid tumors; [6],0 n (%)
same,BOR: PD,advanced solid tumors; [6],3 (75.0%) n (%)
same,BOR: PR,advanced solid tumors; [6],0 n (%)
same,BOR: SD,advanced solid tumors; [6],0 n (%)
same,DCR (90%CI),advanced solid tumors; [6],0 n (%)
same,ORR (90%CI),advanced solid tumors; [6],0 n (%)
same,BOR: CR,advanced solid tumors; [7],0 n (%)
same,BOR: NA (no postbaseline assessments after the start date),advanced solid tumors; [7],2 (50.0%) n (%)
same,BOR: NE (not estimable),advanced solid tumors; [7],0 n (%)
same,BOR: Non-CR/Non-PD,advanced solid tumors; [7],0 n (%)
same,BOR: PD,advanced solid tumors; [7],1 (25.0%) n (%)
same,BOR: PR,advanced solid tumors; [7],0 n (%)
same,BOR: SD,advanced solid tumors; [7],1 (25.0%) n (%)
same,DCR (90%CI),advanced solid tumors; [7],"1 (25.0%) (0.63%, 80.59%) n (%)"
same,ORR (90%CI),advanced solid tumors; [7],0 n (%)
same,BOR: CR,advanced solid tumors; [8],0 n (%)
same,BOR: NA (no postbaseline assessments after the start date),advanced solid tumors; [8],0 n (%)
same,BOR: NE (not estimable),advanced solid tumors; [8],0 n (%)
same,BOR: Non-CR/Non-PD,advanced solid tumors; [8],0 n (%)
same,BOR: PD,advanced solid tumors; [8],5 (83.3%) n (%)
same,BOR: PR,advanced solid tumors; [8],0 n (%)
same,BOR: SD,advanced solid tumors; [8],1 (16.7%) n (%)
same,DCR (90%CI),advanced solid tumors; [8],"1 (16.7%) (0.42%, 64.12%) n (%)"
same,ORR (90%CI),advanced solid tumors; [8],0 n (%)
same,BOR: CR,advanced solid tumors; 85 mg BID 7d-on/7d-off (N = 6),0 n (%)
same,BOR: NA (no postbaseline assessments after the start date),advanced solid tumors; 85 mg BID 7d-on/7d-off (N = 6),3 (50.0%) n (%)
same,BOR: NE (not estimable),advanced solid tumors; 85 mg BID 7d-on/7d-off (N = 6),0 n (%)
same,BOR: Non-CR/Non-PD,advanced solid tumors; 85 mg BID 7d-on/7d-off (N = 6),0 n (%)
same,BOR: PD,advanced solid tumors; 85 mg BID 7d-on/7d-off (N = 6),2 (33.3%) n (%)
same,BOR: PR,advanced solid tumors; 85 mg BID 7d-on/7d-off (N = 6),0 n (%)
same,BOR: SD,advanced solid tumors; 85 mg BID 7d-on/7d-off (N = 6),1 (16.7%) n (%)
same,DCR (90%CI),advanced solid tumors; 85 mg BID 7d-on/7d-off (N = 6),"1 (16.7%) (0.42%, 64.12%) n (%)"
same,ORR (90%CI),advanced solid tumors; 85 mg BID 7d-on/7d-off (N = 6),0 n (%)
same,BOR: CR,advanced solid tumors; [9],0 n (%)
same,BOR: NA (no postbaseline assessments after the start date),advanced solid tumors; [9],5 (41.7%) n (%)
same,BOR: NE (not estimable),advanced solid tumors; [9],0 n (%)
same,BOR: Non-CR/Non-PD,advanced solid tumors; [9],0 n (%)
same,BOR: PD,advanced solid tumors; [9],4 (33.3%) n (%)
same,BOR: PR,advanced solid tumors; [9],0 n (%)
same,BOR: SD,advanced solid tumors; [9],3 (25.0%) n (%)
same,DCR (90%CI),advanced solid tumors; [9],"3 (25.0%) (5.49%, 57.19%) n (%)"
same,ORR (90%CI),advanced solid tumors; [9],0 n (%)
same,DCR,"advanced solid tumors; 85 mg BID, 14 d-on/14 d-off, twelve patients",25.0%
same,median PFS,"advanced solid tumors; 85 mg BID, 14 d-on/14 d-off, twelve patients, 90% CI, 0.82–3.75",1.8 months
same,complete response (CR) or partial response (PR),"advanced solid tumors; 50 enrolled patients, 33 with at least one tumor assessment",No complete response (CR) or partial response (PR) was observed
same,BOR: CR,advanced solid tumors; Total (N = 50),0 n (%)
same,BOR: NA (no postbaseline assessments after the start date),advanced solid tumors; Total (N = 50),17 (34.0%) n (%)
same,BOR: Non-CR/Non-PD,advanced solid tumors; Total (N = 50),0 n (%)
same,BOR: PD,advanced solid tumors; Total (N = 50),23 (46.0%) n (%)
same,BOR: PR,advanced solid tumors; Total (N = 50),0 n (%)
same,BOR: SD,advanced solid tumors; Total (N = 50),9 (18.0%) n (%)
same,DCR (90%CI),advanced solid tumors; Total (N = 50),"9 (18.0%) (8.58%, 31.44%) n (%)"
same,ORR (90%CI),advanced solid tumors; Total (N = 50),0 n (%)
same,BOR: NE (not estimable),"advanced solid tumors; Total (N = 50), SD of insufficient duration",1 (2.0%)^e n (%)
same,maximum target lesion decrease,"advanced solid tumors; one patient with thymic carcinoma, 65 mg BID",18.4%
same,effect in combination with anti-PD-1/L1 antibodies,[1],Synergistic effects were observed

# From article PMC11007962, “First-in-human study of GFH018, a small molecule inhibitor of transforming growth factor-β receptor I inhibitor, in patients with advanced solid tumors” (BMC Cancer, 2024)
